In ChEMBL document CHEMBL1201862, “PubChem BioAssay data set” (2004):
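A five-concentration, 48-hour dose response in 96-well plates underlies each endpoint, interpolated linearly between surrounding concentrations. GI50: concentration for 50% inhibition of growth.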 The source made the active and inactive calls. Cut-off read from the data, not from the text of the source: active = GI50 up to about 1.1 µM and inactive = higher.

Legend:
Assay in all cases: growth of human tumour cells (NCI), 48 h
786-0 = system: 786-0
A498 = system: A498
EKVX = system: EKVX
MOLT-4 = system: MOLT-4
Malme-3M = system: Malme-3M
NCI-H23 = system: NCI-H23
NCI-H522 = system: NCI-H522
OVCAR-3 = system: OVCAR-3
OVCAR-5 = system: OVCAR-5
RXF 393 = system: RXF 393
SK-MEL-28 = system: SK-MEL-28
SR = system: SR
U-251 = system: U-251
UO-31 = system: UO-31
ACHN = system: ACHN
MCF7 = system: MCF7
MDA-MB-435 = system: MDA-MB-435
PC-3 = system: PC-3
T47D = system: T47D

SMILES | GI50 (786-0) | GI50 (A498) | GI50 (EKVX) | GI50 (MOLT-4) | GI50 (Malme-3M) | GI50 (NCI-H23) | GI50 (NCI-H522) | GI50 (OVCAR-3) | GI50 (OVCAR-5) | GI50 (RXF 393) | GI50 (SK-MEL-28) | GI50 (SR) | GI50 (U-251) | GI50 (UO-31) | GI50 (ACHN) | GI50 (MCF7) | GI50 (MDA-MB-435) | GI50 (PC-3) | GI50 (T47D)
CC(C)(Oc1ccc2c(=O)cc(-c3ccccc3)oc2c1)C(=O)Nc1c(Cl)cccc1Cl | 97.1 µM (inactive) | > 100 µM (inactive) | > 100 µM (inactive) | 76.4 µM (inactive) | > 100 µM (inactive) | > 100 µM (inactive) | 38 µM (inactive) | > 100 µM (inactive) | > 100 µM (inactive) | < 0.01 µM (active) | > 100 µM (inactive) | > 100 µM (inactive) | > 100 µM (inactive) | 9.66 µM (inactive) | – | – | – | – | –
O=C(/C=C/c1ccccc1)/C=C/c1ccccc1O | 16.7 µM (inactive) | 30.1 µM (inactive) | 18.8 µM (inactive) | 19.8 µM (inactive) | < 0.01 µM (active) | 24.9 µM (inactive) | 15.5 µM (inactive) | 0.0401 µM (active) | 29.3 µM (inactive) | 20.8 µM (inactive) | 34.6 µM (inactive) | 26.6 µM (inactive) | 17.6 µM (inactive) | 16.4 µM (inactive) | 19.4 µM (inactive) | – | – | – | –
COC(=O)c1ccc(Cc2ccc(C(=O)OC)o2)o1 | > 378 µM (inactive) | – | > 378 µM (inactive) | > 378 µM (inactive) | > 378 µM (inactive) | > 378 µM (inactive) | > 378 µM (inactive) | > 378 µM (inactive) | > 378 µM (inactive) | 282 µM (inactive) | > 378 µM (inactive) | > 378 µM (inactive) | > 378 µM (inactive) | – | > 378 µM (inactive) | – | – | – | –
CN(C)S(=O)(=O)/N=C/c1cccc(/C=N/S(=O)(=O)N(C)C)c1 | > 100 µM (inactive) | > 100 µM (inactive) | 64.9 µM (inactive) | > 100 µM (inactive) | – | > 100 µM (inactive) | – | > 100 µM (inactive) | > 100 µM (inactive) | – | > 100 µM (inactive) | – | > 100 µM (inactive) | > 100 µM (inactive) | > 100 µM (inactive) | 46.7 µM (inactive) | 44.8 µM (inactive) | > 100 µM (inactive) | > 100 µM (inactive)
CO/C=C/c1cc2c(cc1C(OC)OC)OCO2 | 42.6 µM (inactive) | – | 69.7 µM (inactive) | 33.7 µM (inactive) | 53.6 µM (inactive) | 54 µM (inactive) | > 100 µM (inactive) | 29.9 µM (inactive) | 52.8 µM (inactive) | 40.9 µM (inactive) | > 100 µM (inactive) | 44.6 µM (inactive) | 53.3 µM (inactive) | 26.5 µM (inactive) | 83.4 µM (inactive) | – | – | – | –
COc1ccc(C(O)c2nccn2C)c(OC)c1 (centres undefined) | > 100 µM (inactive) | – | > 100 µM (inactive) | > 100 µM (inactive) | > 100 µM (inactive) | > 100 µM (inactive) | > 100 µM (inactive) | > 100 µM (inactive) | > 100 µM (inactive) | > 100 µM (inactive) | > 100 µM (inactive) | > 100 µM (inactive) | > 100 µM (inactive) | > 100 µM (inactive) | > 100 µM (inactive) | > 100 µM (inactive) | – | > 100 µM (inactive) | –
Clc1ccc(CN2COc3c(cc(Cl)c4cccnc34)C2)cc1 | 2.74 µM (inactive) | 12.1 µM (inactive) | 4.7 µM (inactive) | 1.7 µM (inactive) | 2.34 µM (inactive) | 2.57 µM (inactive) | 1.6 µM (inactive) | 1.99 µM (inactive) | 2.24 µM (inactive) | 1.58 µM (inactive) | 2.57 µM (inactive) | 1.91 µM (inactive) | 2.32 µM (inactive) | 0.649 µM (active) | 1.74 µM (inactive) | – | – | – | –
CC1=NN(C(=O)Cc2ccccc2)C(=O)/C1=C\c1ccc(O)cc1 | > 100 µM (inactive) | > 100 µM (inactive) | > 100 µM (inactive) | > 100 µM (inactive) | > 100 µM (inactive) | > 100 µM (inactive) | > 100 µM (inactive) | > 100 µM (inactive) | > 100 µM (inactive) | > 100 µM (inactive) | > 100 µM (inactive) | – | > 100 µM (inactive) | > 100 µM (inactive) | > 100 µM (inactive) | – | – | – | –
Nc1nc2c(nnn2C2C=C(CO)C(O)C2O)c(=O)[nH]1 (centres undefined) | 68.5 µM (inactive) | > 100 µM (inactive) | > 100 µM (inactive) | 42.5 µM (inactive) | 95.7 µM (inactive) | > 100 µM (inactive) | > 100 µM (inactive) | > 100 µM (inactive) | > 100 µM (inactive) | 78 µM (inactive) | > 100 µM (inactive) | > 100 µM (inactive) | > 100 µM (inactive) | > 100 µM (inactive) | > 100 µM (inactive) | – | – | – | –
NNC(=S)N/N=C(\c1nc2ccc(Cl)cc2nc1O)C(O)c1ccc(Cl)cc1Cl (centres undefined) | > 100 µM (inactive) | > 100 µM (inactive) | > 100 µM (inactive) | > 100 µM (inactive) | > 100 µM (inactive) | > 100 µM (inactive) | > 100 µM (inactive) | – | > 100 µM (inactive) | > 100 µM (inactive) | > 100 µM (inactive) | > 100 µM (inactive) | > 100 µM (inactive) | > 100 µM (inactive) | > 100 µM (inactive) | – | – | – | –
COC(=O)C1C(O)CC(c2ccccn2)N(Cc2ccccc2)C1c1ccccn1 (centres undefined) | > 100 µM (inactive) | > 100 µM (inactive) | > 100 µM (inactive) | 37.6 µM (inactive) | > 100 µM (inactive) | > 100 µM (inactive) | > 100 µM (inactive) | > 100 µM (inactive) | > 100 µM (inactive) | > 100 µM (inactive) | > 100 µM (inactive) | – | > 100 µM (inactive) | > 100 µM (inactive) | > 100 µM (inactive) | – | – | – | –
O=C(O)CN(c1ccc(Cl)cc1)S(=O)(=O)c1ccccc1 | > 100 µM (inactive) | > 100 µM (inactive) | > 100 µM (inactive) | > 100 µM (inactive) | > 100 µM (inactive) | > 100 µM (inactive) | > 100 µM (inactive) | > 100 µM (inactive) | > 100 µM (inactive) | > 100 µM (inactive) | > 100 µM (inactive) | – | > 100 µM (inactive) | > 100 µM (inactive) | > 100 µM (inactive) | – | – | – | –
CC1=C(C(=O)Nc2ccc([N+](=O)[O-])cc2)C(c2ccc(N(C)C)cc2)C(C(=O)Nc2ccc([N+](=O)[O-])cc2)=C(C)N1 | 23.3 µM (inactive) | 20.7 µM (inactive) | 25.4 µM (inactive) | 9.14 µM (inactive) | 23.3 µM (inactive) | 18 µM (inactive) | 11 µM (inactive) | 16 µM (inactive) | 23.2 µM (inactive) | 12.1 µM (inactive) | 13.5 µM (inactive) | – | 21.9 µM (inactive) | 21.5 µM (inactive) | 0.0475 µM (active) | – | – | – | –
Cc1ccc(Nc2ccc(Nc3ccc(C)cc3)c3c2C(=O)c2c(O)ccc(O)c2C3=O)cc1 | > 100 µM (inactive) | > 100 µM (inactive) | > 100 µM (inactive) | > 100 µM (inactive) | > 100 µM (inactive) | > 100 µM (inactive) | 47.8 µM (inactive) | 70.5 µM (inactive) | > 100 µM (inactive) | > 100 µM (inactive) | 91.4 µM (inactive) | – | > 100 µM (inactive) | > 100 µM (inactive) | > 100 µM (inactive) | – | – | – | –
COC(=O)C(=O)C(C(=O)C1=NS(=O)(=O)c2cc(S(N)(=O)=O)c(Cl)cc2N1)c1nc2ccc(C(=O)c3ccccc3)cc2nc1O (centres undefined) | > 100 µM (inactive) | 51.5 µM (inactive) | > 100 µM (inactive) | 48.6 µM (inactive) | > 100 µM (inactive) | 2.6 µM (inactive) | 37.2 µM (inactive) | – | 58.7 µM (inactive) | > 100 µM (inactive) | > 100 µM (inactive) | 47.9 µM (inactive) | > 100 µM (inactive) | 79.4 µM (inactive) | > 100 µM (inactive) | – | – | – | –
O=C1CCC2SC1CCC2=O | > 100 µM (inactive) | > 100 µM (inactive) | > 100 µM (inactive) | > 100 µM (inactive) | > 100 µM (inactive) | > 100 µM (inactive) | > 100 µM (inactive) | > 100 µM (inactive) | > 100 µM (inactive) | > 100 µM (inactive) | > 100 µM (inactive) | – | > 100 µM (inactive) | > 100 µM (inactive) | > 100 µM (inactive) | > 100 µM (inactive) | > 100 µM (inactive) | > 100 µM (inactive) | –
CCc1cccc(CC)c1NC(=O)/C(Cl)=C(/Cl)C(=O)O | > 42.1 µM (inactive) | > 100 µM (inactive) | > 56.6 µM (inactive) | 9.25 µM (inactive) | 19 µM (inactive) | 38.3 µM (inactive) | 10.2 µM (inactive) | 32.8 µM (inactive) | > 100 µM (inactive) | 28.9 µM (inactive) | 35.3 µM (inactive) | > 44.3 µM (inactive) | > 58.2 µM (inactive) | 32.4 µM (inactive) | 26.9 µM (inactive) | – | – | – | –
COC(=O)C(C(=O)C(=O)Nc1cccc(OC)c1)c1cnc2ccccc2n1 (centres undefined) | > 100 µM (inactive) | > 100 µM (inactive) | > 100 µM (inactive) | > 100 µM (inactive) | > 100 µM (inactive) | > 100 µM (inactive) | > 100 µM (inactive) | – | > 100 µM (inactive) | 46.1 µM (inactive) | > 100 µM (inactive) | > 100 µM (inactive) | > 100 µM (inactive) | > 100 µM (inactive) | > 100 µM (inactive) | – | – | – | –
CN1CC(=O)N(C)c2ncn(Cc3ccccc3)c2C1=O | > 100 µM (inactive) | > 100 µM (inactive) | > 100 µM (inactive) | > 100 µM (inactive) | > 100 µM (inactive) | > 100 µM (inactive) | – | > 100 µM (inactive) | – | > 100 µM (inactive) | > 100 µM (inactive) | > 100 µM (inactive) | > 100 µM (inactive) | > 100 µM (inactive) | > 100 µM (inactive) | – | – | – | –
